Measured values published in the NIST ThermoML archive (doi:10.1021/je200595b).

Experiment: excess molar enthalpy (molar enthalpy of mixing); xn = mol fraction of the nth substance listed
Settings: 298.15 K, 100 kPa, Liquid, Flow calorimetry

CC(=O)OC(C)=O [ethanoic anhydride] + CC(=O)O
Settings | excess molar enthalpy [kcal/mol]
x1 = 0.05 | 0.0108
x1 = 0.1 | 0.0213
x1 = 0.15 | 0.032
x1 = 0.2 | 0.0423
x1 = 0.25 | 0.0519
x1 = 0.3 | 0.0607
x1 = 0.35 | 0.0688
x1 = 0.4 | 0.0758
x1 = 0.45 | 0.0813
x1 = 0.5 | 0.0851
x1 = 0.55 | 0.0875
x1 = 0.6 | 0.088
x1 = 0.65 | 0.0863
x1 = 0.7 | 0.0822
x1 = 0.75 | 0.0758
x1 = 0.8 | 0.0669
x1 = 0.85 | 0.055
x1 = 0.9 | 0.0402
x1 = 0.95 | 0.022

CC(=O)OC(C)=O [ethanoic anhydride] + CCO
Settings | excess molar enthalpy [kcal/mol]
x2 = 0.05 | 0.0822
x2 = 0.1 | 0.154
x2 = 0.15 | 0.214
x2 = 0.2 | 0.266
x2 = 0.25 | 0.306
x2 = 0.3 | 0.339
x2 = 0.35 | 0.364
x2 = 0.4 | 0.382
x2 = 0.45 | 0.396
x2 = 0.5 | 0.405
x2 = 0.6 | 0.383
x2 = 0.65 | 0.363
x2 = 0.7 | 0.337
x2 = 0.75 | 0.306
x2 = 0.8 | 0.268
x2 = 0.85 | 0.221
x2 = 0.9 | 0.164
x2 = 0.95 | 0.0939

CCOC(C)=O [ethyl acetate] + CCO
Settings | excess molar enthalpy [kcal/mol]
x2 = 0.05 | 0.0712
x2 = 0.1 | 0.135
x2 = 0.15 | 0.185
x2 = 0.2 | 0.222
x2 = 0.25 | 0.25
x2 = 0.3 | 0.27
x2 = 0.35 | 0.283
x2 = 0.4 | 0.291
x2 = 0.45 | 0.293
x2 = 0.5 | 0.289
x2 = 0.55 | 0.284
x2 = 0.6 | 0.276
x2 = 0.65 | 0.262
x2 = 0.7 | 0.234
x2 = 0.75 | 0.205
x2 = 0.8 | 0.174
x2 = 0.85 | 0.138
x2 = 0.9 | 0.1
x2 = 0.95 | 0.0554
